# Assay results reported in US7767665B2, “1,3-benzothiazinone derivatives and use thereof” (Takeda Pharmaceutical Company Limited, priority 2001, dated 2010).
row,Structure (SMILES),melting point
1,"CN(CC(=O)O)c1nccc(-c2nc(=O)c3ccccc3s2)n1 [Example 294, {Methyl [6-(4-oxo-4H-1,3-benzothiazin-2-yl)-2-pyrimidinyl]amino}acetic acid]",215 °C (dec.)
2,"CC(C)(C)OC(=O)CNc1nccc(-c2nc(=O)c3ccccc3s2)n1 [Example 295, tert-Butyl {[6-(4-oxo-4H-1,3-benzothiazin-2-yl)-2-pyrimidinyl]amino}acetate]",247 to 248 °C
3,"O=C(O)CNc1nccc(-c2nc(=O)c3ccccc3s2)n1 [Example 296, {[6-(4-Oxo-4H-1,3-benzothiazin-2-yl)-2-pyrimidinyl]amino}acetic acid]",283 to 284 °C
4,"C[S+]([O-])c1ccnc(-c2nc(=O)c3ccccc3s2)c1 (centres unmarked) [Example 299, 2-[4-(Methylsulfinyl)-2-pyridyl]-4H-1,3-benzothiazine-4-one]",205 to 206 °C
5,"CS(=O)(=O)c1ccnc(-c2nc(=O)c3ccccc3s2)c1 [Example 300, 2-[4-(Methylsulfonyl)-2-pyridyl]-4H-1,3-benzothiazine-4-one]",300 to 301 °C
6,"CC(=O)OCCCc1cccc(-c2nc(=O)c3ccccc3s2)n1 [Example 301, 3-[6-(4-Oxo-4H-1,3-benzothiazin-2-yl)-2-pyridyl]propyl acetate]",141.3 to 141.6 °C
7,"CCOC(=O)CCCCc1cccc(-c2nc(=O)c3ccccc3s2)n1 [Example 303, Ethyl 5-[6-(4-oxo-4H-1,3-benzothiazin-2-yl)-2-pyridyl]valerate]",87 to 88 °C
8,"O=C(O)CCCCc1cccc(-c2nc(=O)c3ccccc3s2)n1 [Example 304, 5-[6-(4-Oxo-4H-1,3-benzothiazin-2-yl)-2-pyridyl]valeric acid]",161.9 to 162.3 °C
9,"O=c1nc(-c2cccc(CCc3nnn[nH]3)n2)sc2ccccc12 [Example 305, 2-{6-[2-(1H-1,2,3,4-tetrazol-5-yl)ethyl]-2-pyridyl}-4H-1,3-benzothiazine-4-one]",156.6 to 157 °C
10,"N#CCCc1cccc(-c2nc(=O)c3ccccc3s2)n1 [Example 306, 3-[6-(4-Oxo-4H-1,3-benzothiazin-2-yl)-2-pyridyl]propionitrile]",156.6 to 157 °C
11,"CC(C)(C)OC(=O)CCc1ccnc(-c2nc(=O)c3ccccc3s2)c1 [Example 309, tert-butyl 3-[2-(4-oxo-4H-1,3-benzothiazin-2-yl)-4-pyridyl]propionate]",135.8 to 136.7 °C
12,"O=C(O)/C=C/c1ccnc(-c2nc(=O)c3ccccc3s2)c1 [Example 310, (E)-3-[2-(4-Oxo-4H-1,3-benzothiazin-2-yl)-4-pyridyl]acrylic acid]",284.3 to 285 °C
13,"CC(C)(C)OC(=O)/C=C/c1ccnc(-c2nc(=O)c3ccccc3s2)c1 [Example 311, tert-Butyl (E)-3-[2-(4-oxo-4H-1,3-benzothiazin-2-yl)-4-pyridyl]acrylate]",196 to 196.7 °C
14,"O=C(O)CNC(=O)CCc1cccc(-c2nc(=O)c3ccccc3s2)n1 [Example 312, ({3-[6-(4-Oxo-4H-1,3-benzothiazin-2-yl)-2-pyridyl]propanoyl}amino)acetic acid]",219.2 to 219.8 °C
15,"O=C(O)[C@@H]1CCCN1C(=O)CCc1cccc(-c2nc(=O)c3ccccc3s2)n1 [Example 313, 1-{3-[6-(4-Oxo-4H-1,3-benzothiazin-2-yl)-2-pyridyl]propanoyl}proline]",210.5 to 211 °C
16,"CN(CC(=O)O)C(=O)CCc1cccc(-c2nc(=O)c3ccccc3s2)n1 [Example 314, (Methyl{3-[6-(4-oxo-4H-1,3-benzothiazin-2-yl)-2-pyridyl]propanoyl}amino)acetic acid]",194.5 to 194.8 °C
17,"CCOC(=O)C(C)Cc1cccc(-c2nc(=O)c3ccccc3s2)n1 (centres unmarked) [Example 315, Ethyl 2-methyl-3-[6-(4-oxo-4H-1,3-benzothiazin-2-yl)-2-pyridyl]propionate]",120.2 to 120.7 °C
18,"N#CCCc1ccnc(-c2nc(=O)c3ccccc3s2)c1 [Example 317, 3-[2-(4-Oxo-4H-1,3-benzothiazin-2-yl)-4-pyridyl]propionitrile]",178.3 to 179 °C
19,"Cc1cc(CCC(=O)OC(C)(C)C)cc(-c2nc(=O)c3ccccc3s2)n1 [Example 319, tert-Butyl 3-[2-methyl-6-(4-oxo-4H-1,3-benzothiazin-2-yl)-4-pyridyl]propanoate]",129.4 to 130.5 °C
20,"Cc1cc(CCC(=O)OC(C)(C)C)cc(-c2nc(=O)c3ccc(Cl)cc3s2)n1 [Example 320, tert-Butyl 3-[2-(7-chloro-4-oxo-4H-1,3-benzothiazin-2-yl)-6-methyl-4-pyridyl]propanoate]",186.4 to 187.6 °C
21,"Cc1cc(CCC(=O)O)cc(-c2nc(=O)c3ccccc3s2)n1 [Example 321, 3-[2-Methyl-6-(4-oxo-4H-1,3-benzothiazin-2-yl)-4-pyridyl]propionic acid]",233.2 to 234.7 °C
22,"CC(C)(C)OC(=O)CCc1ccc(-c2nc(=O)c3ccccc3s2)nc1 [Example 327, tert-Butyl 3-[6-(4-oxo-4H-1,3-benzothiazin-2-yl)-3-pyridyl]propanoate]",160 to 161 °C
23,"O=C(O)CCOCc1cccc(-c2nc(=O)c3ccccc3s2)n1 [Example 337, 3-[(6-(4-oxo-4H-1,3-benzothiazin-2-yl)-2-pyridyl)methoxy]propionic acid]",176.6 to 176.7 °C
24,"Cc1cccc2c(=O)nc(-c3cccc(CCC(=O)OC(C)(C)C)n3)sc12 [Example 338, tert-Butyl 3-[6-(8-methyl-4-oxo-4H-1,3-benzothiazin-2-yl)-2-pyridyl]propanoate]",109.9 to 110 °C

# Results, then the compound that gave them:
row,melting point,Structure (SMILES)
1,160.5 °C (dec.),CN(C)CCSc1cncc(-c2nc(=O)c3ccccc3s2)n1 [Example 297]
2,213 to 214 °C,"CSc1ccnc(-c2nc(=O)c3ccccc3s2)c1 [Example 298, 2-[4-(Methylthio)-2-pyridyl]-4H-1,3-benzothiazine-4-one]"
3,145.5 to 146 °C,"O=c1nc(-c2cccc(CCCO)n2)sc2ccccc12 [Example 302, 2-[6-(3-Hydroxypropyl)-2-pyridyl]-4H-1,3-benzothiazine-4-one]"
4,148.6 to 150.6 °C,"O=C(O)CCCCCCc1cccc(-c2nc(=O)c3ccccc3s2)n1 [Example 307, 7-[6-(4-Oxo-4H-1,3-benzothiazin-2-yl)-2-pyridyl]heptanoic acid]"
5,215.3 to 215.9 °C,"O=C(O)CCc1ccnc(-c2nc(=O)c3ccccc3s2)c1 [Example 308, 3-[2-(4-Oxo-4H-1,3-benzothiazin-2-yl)-4-pyridyl]propionic acid]"
6,250 °C (dec.),"O=c1nc(-c2cc(CCc3nnn[nH]3)ccn2)sc2ccccc12 [Example 316, 2-{4-[2-(1H-1,2,3,4-Tetrazol-5-yl)ethyl]-2-pyridyl}-4H-1,3-benzothiazine-4-one]"
7,120.3 to 120.7 °C,"CCOC(=O)C(C)Cc1ccnc(-c2nc(=O)c3ccccc3s2)c1 (centres unmarked) [Example 318, Ethyl 2-methyl-3-[2-(4-oxo-4H-1,3-benzothiazin-2-yl)-4-pyridyl]propionate]"
8,273.5 °C (dec.),"Cc1cc(CCC(=O)O)cc(-c2nc(=O)c3ccc(Cl)cc3s2)n1 [Example 322, 3-[2-(7-Chloro-4-oxo-4H-1,3-benzothiazin-2-yl)-6-methyl-4-pyridyl]propionic acid]"
9,192.3 to 194 °C,"CC(C)(C)OC(=O)CN1CCN(c2ccnc(-c3nc(=O)c4ccccc4s3)c2)C1=O [Example 323, tert-Butyl [2-oxo-3-[2-(4-oxo-4H-1,3-benzothiazin-2-yl)-4-pyridyl]-1-imidazolidinyl]acetate]"
10,271 to 273 °C,"O=C(O)CN1CCN(c2ccnc(-c3nc(=O)c4ccccc4s3)c2)C1=O [Example 324, [2-Oxo-3-[2-(4-oxo-4H-1,3-benzothiazin-2-yl)-4-pyridyl]-1-imidazolidinyl]acetic acid]"
11,211.5 to 213 °C,"CCN1CCN(c2ccnc(-c3nc(=O)c4ccccc4s3)c2)C1=O [Example 325, 2-[4-(3-Ethyl-2-oxo-1-imidazolidinyl)-2-pyridyl]-4H-1,3-benzothiazine-4-one]"
12,214.2 to 215.3 °C,"O=c1cccc(-c2nc(=O)c3ccccc3s2)[nH]1 [Example 326, 2-(6-Oxo-1,6-dihydro-2-pyridyl)-4H-1,3-benzothiazine-4-one]"
13,232.2 to 232.4 °C,"O=C(O)CCc1ccc(-c2nc(=O)c3ccccc3s2)nc1 [Example 328, 3-[6-(4-Oxo-4H-1,3-benzothiazin-2-yl)-3-pyridyl]propionic acid]"
14,247.5 to 247.8 °C,"NC(=O)CCc1ccc(-c2nc(=O)c3ccccc3s2)nc1 [Example 329, 3-[6-(4-Oxo-4H-1,3-benzothiazin-2-yl)-3-pyridyl]propanamide]"
15,236.3 to 236.5 °C,"NC(=O)CCc1cccc(-c2nc(=O)c3ccccc3s2)n1 [Example 330, 3-[6-(4-Oxo-4H-1,3-benzothiazin-2-yl)-2-pyridyl]propanamide]"
16,237 to 239.7 °C,"NC(=O)CCc1ccnc(-c2nc(=O)c3ccccc3s2)c1 [Example 331, 3-[6-(4-Oxo-4H-1,3-benzothiazin-2-yl)-4-pyridyl]propanamide]"
17,67.7 to 68.5 °C,"CC(C)(C)OC(=O)CCOCCc1cccc(-c2nc(=O)c3ccccc3s2)n1 [Example 334, tert-Butyl 3-[2-(6-(4-oxo-4H-1,3-benzothiazin-2-yl)-2-pyridyl)ethoxy]propanoate]"
18,236.6 to 236.7 °C,"O=C(O)CCOCCc1cccc(-c2nc(=O)c3ccccc3s2)n1 [Example 335, 3-[2-(6-(4-Oxo-4H-1,3-benzothiazin-2-yl)-2-pyridyl)ethoxy]propionic acid]"
19,84.7 to 84.9 °C,"CC(C)(C)OC(=O)CCOCc1cccc(-c2nc(=O)c3ccccc3s2)n1 [Example 336, tert-Butyl 3-[(6-(4-oxo-4H-1,3-benzothiazin-2-yl)-2-pyridyl)methoxy]propanoate]"
20,283.8 °C (dec.),"N#Cc1nc(-c2nc(=O)c3ccccc3s2)ccc1CCC(=O)O [Example 340, 3-[2-Cyano-6-(4-oxo-4H-1,3-benzothiazin-2-yl)-3-pyridyl]propanoate]"
